Assay results as given in ChEMBL document CHEMBL1127270, “Enantioselective synthesis of PD144723: a potent stereospecific anticonvulsant” (Bioorg Med Chem Lett, 1994).

Legend:
[1] = In vitro inhibition of [3H]-gabapentin binding to partially purified rat neocortex synaptic plasma membranes; type: cell membranes, Membrane
Rattus norvegicus [2] = organism: Rattus norvegicus; experiment: In vitro percent inhibition of [3H]gabapentin binding at log molar concentration of -5.5
Mus musculus [3] = experiment: Percent of mice protected in blocking maximal electroshock seizures test at a dose of 500 mg/kg, iv,; type: functional
Mus musculus [4] = experiment: Percent of mice protected in blocking maximal electroshock seizures test at a dose of 100 mg/kg, iv,; type: functional
Rattus norvegicus [5] = organism: Rattus norvegicus; experiment: In vitro percent inhibition of [3H]gabapentin binding at log molar concentration of -8
Rattus norvegicus [6] = organism: Rattus norvegicus; experiment: In vitro percent inhibition of [3H]gabapentin binding at log molar concentration of -7.5
Mus musculus [7] = organism: Mus musculus; experiment: Effective dose for anticonvulsant activity (blocking maximal electroshock seizures) in male CF-1 strain mice was measured.; type: functional
Rattus norvegicus [8] = organism: Rattus norvegicus; experiment: In vitro percent inhibition of [3H]gabapentin binding at log molar concentration of -6
Rattus norvegicus [9] = organism: Rattus norvegicus; experiment: In vitro percent inhibition of [3H]gabapentin binding at log molar concentration of -7
Rattus norvegicus [10] = organism: Rattus norvegicus; experiment: In vitro percent inhibition of [3H]gabapentin binding at log molar concentration of -6.5
Rattus norvegicus [11] = organism: Rattus norvegicus; experiment: In vitro percent inhibition of [3H]gabapentin binding at log molar concentration of -5
Rattus norvegicus [12] = organism: Rattus norvegicus; experiment: In vitro percent inhibition of [3H]gabapentin binding at log molar concentration of -4.5
Rattus norvegicus [13] = organism: Rattus norvegicus; experiment: In vitro percent inhibition of [3H]gabapentin binding at log molar concentration of -4
Rattus norvegicus [14] = organism: Rattus norvegicus; experiment: In vitro percent inhibition of [3H]gabapentin binding at log molar concentration of -8.5
Mus musculus [15] = experiment: Percent of mice protected in blocking maximal electroshock seizures test at a dose of 75 mg/kg, iv,; type: functional
Mus musculus [16] = experiment: Percent of mice protected in blocking maximal electroshock seizures test at a dose of 750 mg/kg, iv,; type: functional
Mus musculus [17] = experiment: Percent of mice protected in blocking maximal electroshock seizures test at a dose of 450 mg/kg, iv,; type: functional
Mus musculus [18] = experiment: Percent of mice protected in blocking maximal electroshock seizures test at a dose of 50 mg/kg, iv,; type: functional
Mus musculus [19] = experiment: Percent of mice protected in blocking maximal electroshock seizures test at a dose of 150 mg/kg, iv,; type: functional

Compound | IC50 [1] [nM] | inhibition (Rattus norvegicus [2]) [%] | Protection (Mus musculus [3]) [%] | Protection (Mus musculus [4]) [%] | inhibition (Rattus norvegicus [5]) [%] | inhibition (Rattus norvegicus [6]) [%] | ED50 (Mus musculus [7]) [mg/kg] | inhibition (Rattus norvegicus [8]) [%] | inhibition (Rattus norvegicus [9]) [%] | inhibition (Rattus norvegicus [10]) [%] | inhibition (Rattus norvegicus [11]) [%] | inhibition (Rattus norvegicus [12]) [%] | inhibition (Rattus norvegicus [13]) [%] | inhibition (Rattus norvegicus [14]) [%] | Protected (Mus musculus [15]) [%] | Protected (Mus musculus [16]) [%] | Protected (Mus musculus [17]) [%] | Protected (Mus musculus [18]) [%] | Protected (Mus musculus [19]) [%]
CC(C)C[C@@H](CN)CC(=O)O | 620 | 80 | ~1 | ~94 | 0 | 10 | > 300 | 60 | 8 | 38 | 80 | 90 |  |  |  |  |  |  | 
CC(C)CC(CN)CC(=O)O (racemic) | 83 | 92 |  |  | 12 | 30 |  | 90 | 50 | 74 | 94 | 98 | 100 | 10 |  |  |  |  | 
CC(C)C[C@H](CN)CC(=O)O [PREGABALIN] | 37 | 94 |  |  | 25 | 50 | 20 | 90 | 75 | 85 | 98 | 100 |  |  |  |  |  |  | 
NCC1(CC(=O)O)CCCCC1 [GABAPENTIN] | 80 |  |  |  |  |  | 87 |  |  |  |  |  |  |  | ~70 | ~99 | ~74 | ~1 | ~75
